In brackets after ≈: the same amount, converted by molar mass. Several values for one entry are separate records, joined by “and”; a condition that tells them apart may be missing. Equal entries are not always repeated. Each block holds one compound with its values, some of them ahead of it.
Tests used:
Test in all cases: ≥ marks a high value that may be exact or a test limit, other limits are often not marked, values filed in µg/mL are converted to µM
[1] = tested on: Batrachochytrium dendrobatidis JEL-197
[2] = tested on: Escherichia coli ATCC 25922
[3] = tested on: Pseudomonas aeruginosa ATCC 27853
[4] = tested on: Enterobacter cloacae NHTCC 53001
[5] = tested on: Klebsiella pneumoniae KK3 9904
[6] = tested on: Candida albicans ATCC 90028
[7] = tested on: Staphylococcus aureus NCTC 8325
[8] = tested on: Enterococcus faecalis NCTC 12697
[9] = tested on: Staphylococcus aureus ATCC 12493
[10] = tested on: Pseudomonas aeruginosa ATCC 9027
[11] = tested on: Klebsiella pneumoniae ATCC 43816
[12] = tested on: Escherichia coli ATCC BAA-2340
Staphylococcus aureus = tested on: Staphylococcus aureus
[13] = tested on: Klebsiella pneumoniae ATCC BAA-1705
[14] = tested on: Staphylococcus aureus B038 V1S1A
[15] = tested on: Staphylococcus aureus ATCC 6538
[16] = tested on: Staphylococcus aureus ATCC 43300
[17] = tested on: Candida albicans ATCC 10231
[18] = tested on: Pseudomonas aeruginosa CIP A22
Vibrio splendidus SATMAR = tested on: Vibrio splendidus SATMAR
[19] = tested on: Vibrio aestuarianus CIP 109791T
[20] = tested on: Klebsiella pneumoniae CIP 52.145
[21] = tested on: Vibrio vulnificus CIP 109783
Vibrio splendidus LGP-32 = tested on: Vibrio splendidus LGP-32
[22] = tested on: Vibrio alginolyticus IFREMER
[23] = tested on: Salmonella typhimurium LME, Caen
[24] = tested on: Listeria monocytogenes LME, Caen
[25] = tested on: Aeromonas salmonicida CIP 103209T
[26] = tested on: Bacillus megaterium CIP 51.17
[27] = tested on: Escherichia coli CIP 54.8
[28] = tested on: Staphylococcus aureus CIP 53.156
[29] = tested on: Enterococcus faecalis CIP 76.117
[30] = tested on: Vibrio splendidus IFREMER
[31] = tested on: Vibrio aestuarianus IFREMER

MIC [1]: ≥ 100 µM
Structure (SMILES): CC[C@H](C)[C@H](NC(=O)CN)C(=O)N[C@@H](CC(C)C)C(=O)N[C@@H](CC(=O)O)C(=O)N[C@@H](CO)C(=O)N[C@@H](Cc1ccccc1)C(=O)N[C@@H](CCCCN)C(=O)N[C@@H](CC(=O)O)C(=O)N[C@H](C(=O)N[C@@H](C)C(=O)N[C@@H](CCCCN)C(=O)NCC(=O)N[C@H](C(=O)N[C@@H](C)C(=O)N[C@H](C(=O)N[C@@H](Cc1cnc[nH]1)C(=O)N[C@@H](CC(C)C)C(=O)N[C@@H](CC(C)C)C(=O)N[C@@H](CC(N)=O)C(=O)N[C@@H](CCSC)C(=O)N[C@@H](C)C(=O)N[C@@H](CCCCN)C(=O)N[C@H]1CSSC[C@@H](C(=O)O)NC(=O)CNC(=O)[C@H]([C@@H](C)O)NC(=O)[C@H](CCSC)NC(=O)[C@H](CCCCN)NC1=O)[C@@H](C)O)C(C)C)C(C)C [GILDSFKDVAKGVATHLLNMAKCKMTGC]

MIC [2]: 3 µM (≈ 11.8 µg/mL) | MIC [3]: 3 µM (≈ 11.8 µg/mL) | MIC [4]: 6 µM (≈ 23.5 µg/mL) | MIC [5]: 6 µM (≈ 23.5 µg/mL) | MIC [6]: ≥ 100 µM | MIC [7]: 25 µM (≈ 98 µg/mL)
Structure (SMILES): CC[C@H](C)[C@H](NC(=O)[C@H](Cc1cnc[nH]1)NC(=O)[C@H](CCCCN)NC(=O)CNC(=O)[C@H](C)NC(=O)[C@@H](NC(=O)[C@H](CCCCN)NC(=O)[C@H](CC(C)C)NC(=O)[C@@H](NC(=O)CNC(=O)[C@H](CCCN=C(N)N)NC(=O)[C@H](Cc1ccccc1)NC(=O)[C@H](CC(C)C)NC(=O)[C@H](CO)NC(=O)[C@H](CCSC)NC(=O)[C@H](CC(C)C)NC(=O)CN)C(C)C)[C@@H](C)O)C(=O)N[C@@H](Cc1ccccc1)C(=O)N[C@@H](CCCCN)C(=O)N[C@@H](CC(N)=O)C(=O)N[C@H](C(=O)NCC(=O)NCC(=O)N[C@@H](CO)C(=O)N[C@@H](CC(C)C)C(=O)N[C@@H](CC(C)C)C(=O)N[C@@H](CC(=O)O)C(=O)N[C@@H](CCC(N)=O)C(=O)N[C@@H](C)C(=O)N[C@@H](CCCCN)C(=O)N[C@H]1CSSC[C@@H](C(=O)O)NC(=O)[C@H](CCC(=O)O)NC(=O)CNC(=O)[C@H]([C@@H](C)O)NC(=O)[C@H]([C@@H](C)CC)NC(=O)[C@H](CCCCN)NC1=O)C(C)C [GLMSLFRGVLKTAGKHIFKNVGGSLLDQAKCKITGEC]

MIC [8]: 16 µM (≈ 50.1 µg/mL) | MIC [9]: 8 µM (≈ 25 µg/mL) | MIC [10]: 16 µM (≈ 50.1 µg/mL) | MIC [11]: 8 µM (≈ 25 µg/mL) | MIC [12]: 2 µM (≈ 6.26 µg/mL) | MIC (Staphylococcus aureus): 4 µM (≈ 12.5 µg/mL) | MIC [13]: 4 µM (≈ 12.5 µg/mL) | MIC [14]: 2 µM (≈ 6.26 µg/mL) | MIC [6]: ≥ 100 µM | MIC [15]: 1.6 µM and 4 µM | MIC [16]: 12.5 µM (≈ 39.1 µg/mL) | MIC [17]: 128 µM (≈ 401 µg/mL)
Structure (SMILES): CC[C@H](C)[C@H](NC(=O)[C@H](CCCCN)NC(=O)[C@@H](NC(=O)[C@H](CO)NC(=O)[C@H](CC(N)=O)NC(=O)[C@H](Cc1c[nH]c2ccccc12)NC(=O)[C@H](CC(C)C)NC(=O)CN)[C@@H](C)CC)C(=O)N[C@@H](C)C(=O)NCC(=O)N[C@@H](CCCCN)C(=O)N[C@@H](CCCCN)C(=O)N[C@@H](CC(C)C)C(=O)N[C@@H](Cc1ccccc1)C(=O)N[C@H](C(=O)N[C@@H](CC(N)=O)C(=O)N[C@H](C(=O)N[C@@H](CC(C)C)C(=O)N[C@@H](CC(=O)O)C(=O)N[C@@H](CCCCN)C(=O)N[C@H](C(=O)N[C@@H](CCCN=C(N)N)C(=O)N[C@H]1CSSC[C@@H](C(=O)O)NC(=O)CNC(=O)CNC(=O)[C@H](C)NC(=O)[C@H](C(C)C)NC(=O)[C@H](CCCCN)NC1=O)[C@@H](C)CC)C(C)C)C(C)C [GLWNSIKIAGKKLFVNVLDKIRCKVAGGC]

MIC [18]: ≥ 33.9 µM | MIC (Vibrio splendidus SATMAR): 14.1 µM (≈ 23.6 µg/mL) | MIC [19]: 14.1 µM (≈ 23.6 µg/mL) | MIC [20]: ≥ 33.9 µM | MIC [21]: ≥ 50 µM | MIC (Vibrio splendidus LGP-32): 24.5 µM (≈ 40.9 µg/mL) | MIC [22]: 4.23 µM (≈ 7.07 µg/mL) | MIC [23]: ≥ 33.9 µM | MIC [24]: 16.9 µM (≈ 28.3 µg/mL) | MIC [25]: 14.1 µM (≈ 23.6 µg/mL) | MIC [26]: 4.23 µM (≈ 7.07 µg/mL) | MIC [27]: 4.23 µM (≈ 7.07 µg/mL) | MIC [28]: 8.47 µM (≈ 14.1 µg/mL) | MIC [29]: ≥ 67.7 µM | MIC [30]: 8.47 µM (≈ 14.1 µg/mL) | MIC [31]: 4.23 µM (≈ 7.07 µg/mL)
Structure (SMILES): CC(C)C[C@H](NC(=O)CNC(=O)[C@H](Cc1ccccc1)NC(=O)[C@H](Cc1ccccc1)NC(=O)[C@H](CC(C)C)NC(=O)CNC(=O)[C@H](Cc1ccccc1)NC(=O)[C@H](CC(C)C)NC(=O)[C@@H]1CCCN1C(=O)[C@H](CCCCN)NC(=O)[C@H](CCCCN)NC(=O)[C@H](CCCCN)NC(=O)[C@@H](N)CCCCN)C(=O)N[C@@H](Cc1ccccc1)C(=O)O [KKKKPLFGLFFGLF]

Reference: DBAASP
